Data on one molecule can be found in US20230174649A1, “PHARMACEUTICAL COMPOSITIONS CONTAINING ANTI-CD47 ANTIBODIES” (I-MAB BIOPHARMA US LIMITED, priority 2020, published 2023).

This assay relates to Calreticulin. Put plainly: FACS analysis of expression level of calreticulin on tumor cell surface. As to conditions: Toledo cells; for Mean Fluorescence Intensity (MFI) Calreticulin: 12 hours. The assay is classed as cell-based, Human. A digest of the protocol: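 Toledo cells (0.2×10^6 cells/well) were treated with small-molecule agents for 12 hours. Harvested cells were stained with anti-calreticulin and anti-CD47 antibodies in the dark at 4° C for 30 min, then read by flow cytometry.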
(In general: In flow cytometry, cells or beads pass a laser one at a time.)

As to `Nc1ncn([C@@H]2O[C@H](CO)[C@@H](O)[C@H]2O)c(=O)n1` [Azacitidine], the “Mean Fluorescence Intensity (MFI) Calreticulin” value is given as 65.8 (0.008 uM); 71.9 (0.04 uM); 88.4 (0.2 uM); 174 (1 uM); 491 (5 uM). In addition, under “dose of 5 μM”, the “increase of the expression level of calreticulin” value is “about 20 folds”.
